Measurements: article PMC10541198, “Specific quinone reductase 2 inhibitors reduce metabolic burden and reverse Alzheimer’s disease phenotype in mice” (The Journal of Clinical Investigation, 2023)
Several values for one entry are separate records, joined by “and”; a condition that tells them apart may be missing. Identical values can stand only once.

System: 5xFAD mice
Assay: Delay fear conditioning in 5xFAD mice, YB-537 in drinking water
Type: in vivo, mouse
Parameters: Figure 8A, delay fear conditioning: unit not given here
Conditions: for freezing to conditioned context (individual mice) / freezing to conditioned cue (individual mice): in % (unit assumed); for Figure 8A, delay fear conditioning: individual animals
Protocol: We next aimed to test the effect of QR2 inhibition in AD model mice using YB-537, taking advantage of its extremely high specificity, solubility, and lack of toxicity. First, we determined YB-537 pharmacokinetics (PK) and oral bioavailability and assessed any acute observable toxicity in mice. […] We therefore opted to chronically deliver YB-537 to AD-model mice via their drinking water, so they may freely ingest the inhibitor at 50 mg/kg, with minimal intervention or trauma, for 1 month. We chose 9-month-old 5xFAD ([27]) male and female mice in double-blind experiments, so that well-progressed symptoms and pathologies would be present, to mimic clinically relevant cases in human patients ([35]), as has been previously described in this mouse model. Other than an improvement in nest quality ([36]) over time seen in animals receiving YB-537 (starting at age 8 months and ending at age 9 months), no changes to general physical parameters or wellbeing were observed over the 1 month of YB-537 ingestion (Supplemental Figure 6, A–J). Animals received the treatment for a week, and, on week 2, behavioral experiments commenced, including Morris water maze (MWM) and novel object recognition (NOR). These were carried out in parallel, with half of the animals (including both sexes and treatments) undergoing 1 of the paradigms in week 2, and the other in week 3. […] Since learning in this paradigm was slow, and performance was poor even following 6 days of training (using 4 learning trials a day), a test day was not carried out and instead only the learning rate was measured. […] Finally, during week 4, all the mice underwent DFC.
Since 1 month of chronic YB-537 ingestion rescued cognitive and pathological phenotypes more efficiently in female compared with male 5xFAD mice, we hypothesized that males may require a longer dosing regimen than females in order achieve a similar therapeutic effect. We therefore ran an additional experiment where we treated 5-month-old male 5xFAD mice with 50 mg/kg of YB-537 in drinking water for 4 months (starting at the age of 5 months, and ending at the age of 9 months, similar to the experiment described above), and compared cognitive performance to male 5xFAD and WT control mice of the same age not being treated with YB-537, using DFC in double-blind experiments.
DFC was done as previously described ([7]). Briefly, mice were given 2 minutes to explore the conditioning chambers, during which baseline freezing was measured. Then, a 20 second, 4 kHz, 80 dB tone was given, coterminating with the start of a 2 second, 0.5 mA foot-shock. This was repeated twice more in 1 minute intervals. Following the third and last bout, 1 minute was given before the animals were removed from the chambers. The next day, the animals were returned to the room under the same conditions and were placed back into the chambers, and freezing to the context was measured over the course of 5 minutes. The next day, the mice were brought to unfamiliar conditioning rooms and chambers. In this unfamiliar context, the protocol from the first day was repeated, except without the foot shocks. Freezing for the cue was recorded, starting from the sounding of the first tone. All measurements were taken with a Sentec stc-tb33usb-at camera, and analysis was done with Freeze Frame software (Actimetrics). […]
only, and kept there for 2 min. They were then placed inside a Habitest Operant Cage, within a Habitest Isolation Cubicle (Coulbourn), on a modular shock floor made of 16 m et al grids, connected to Precision Animal Shockers (Coulbourn) with illumination inside the cage coming from a 20 W bulb. Themice were given 2 min to explore, during which baseline freezing was measured. Then, a 20 s, 4 kHz, 80 dB tone was given, co- terminating with the start of a 2 s, 0.5 mA foot-shock, which was repeated a further two times, each having 1 min interval. Following the third, and last of these bouts, 1 min was given prior to the animals being removed from the chambers. […]

## Cc1ccc(-c2cn3cccc(C)c3n2)cc1S(=O)(=O)N1CCNCC1 [YB-537]
5xFAD 1 month, both sexes
  freezing to conditioned context (individual mice): 26.3 and 36.9 and 45.3 and 29.6 and 49.0 and 37.4 and 41.6 and 45.9 and 41.9 and 40.7 and 24.2 and 16.0 and 23.6 and 22.5 and 44.6 and 33.3
  freezing to conditioned cue (individual mice): 15.0 and 17.0 and 24.7 and 22.5 and 22.1 and 14.0 and 31.4 and 12.7 and 18.5 and 20.4 and 8.8 and 16.5 and 7.1 and 13.0 and 5.4 and 14.5
5xFAD 1 month, females
  freezing to conditioned context (individual mice): 26.3 and 36.9 and 16.0 and 23.6 and 22.5 and 44.6 and 33.3
  freezing to conditioned cue (individual mice): 15.0 and 17.0 and 16.5 and 7.1 and 13.0 and 5.4 and 14.5
5xFAD 1 month, males
  freezing to conditioned context (individual mice): 45.9 and 41.9 and 40.7 and 24.2 and 45.3 and 29.6 and 49.0 and 37.4 and 41.6
  freezing to conditioned cue (individual mice): 12.7 and 18.5 and 20.4 and 8.8 and 24.7 and 22.5 and 22.1 and 14.0 and 31.4
Baseline
  Figure 8A, delay fear conditioning: 11.3 and 26.4 and 19.1 and 15.1 and 10.9 and 6.4 and 3.1 and 7.6 and 8.2
CS/US 1
  Figure 8A, delay fear conditioning: 31.6 and 45.2 and 36.2 and 37.7 and 37.5 and 20.1 and 19.4 and 47.6 and 48.9
CS/US 2
  Figure 8A, delay fear conditioning: 48.3 and 58.0 and 52.7 and 47.1 and 45.6 and 18.2 and 23.2 and 57.0 and 60.3
CS/US 3
  Figure 8A, delay fear conditioning: 62.5 and 61.5 and 55.2 and 55.7 and 52.0 and 17.2 and 31.2 and 65.3 and 57.9
Male 5xFAD, 50 mg/kg in drinking water 4 months
  learning during delay-fear conditioning: normal learning
Male 5xFAD, 4 months
  freezing to conditioned context (individual mice): 24.6 and 26.8 and 50.3 and 22.2 and 32.3 and 63.4 and 63.3 and 75.1 and 38.8
  freezing to conditioned cue (individual mice): 44.3 and 66.5 and 54.4 and 28.0 and 38.6 and 64.3 and 47.4 and 65.9 and 58.0
Male and female 5xFAD, 1 month in drinking water
  learning during delay fear conditioning: no difference observed across groups
